# According to PMC9569420 (Communications Biology, 2022):
# Legend:
# CK1g3 = molecular target: T1, CK1g3 (Homo sapiens, UniProt Q9Y6M4); experiment: HotSpot kinase assay; assay type: biochemical; settings: read-out: % Enzyme Activity (relative to DMSO controls)
# T1 construct: purchased Reaction Biology Corporation
# PYK2 = molecular target: T2, PYK2 (Homo sapiens, UniProt Q14289); experiment: HotSpot kinase assay; assay type: biochemical; settings: read-out: % Enzyme Activity (relative to DMSO controls)
# T2 construct: purchased Reaction Biology Corporation
# STK38L/NDR2 = molecular target: T3, STK38L/NDR2 (Homo sapiens, UniProt Q9Y2H1); experiment: HotSpot kinase assay; assay type: biochemical; settings: read-out: % Enzyme Activity (relative to DMSO controls)
# T3 construct: purchased Reaction Biology Corporation
# ABL2/ARG = molecular target: T4, ABL2/ARG (Homo sapiens, UniProt P42684); experiment: HotSpot kinase assay; assay type: biochemical; settings: read-out: % Enzyme Activity (relative to DMSO controls)
# T4 construct: purchased Reaction Biology Corporation
# ABL1 = molecular target: T5, ABL1 (Homo sapiens, UniProt P00519); experiment: biochemical
# T5 construct: purchased Reaction Biology Corporation
# T5 sequence (P00519 whole entry): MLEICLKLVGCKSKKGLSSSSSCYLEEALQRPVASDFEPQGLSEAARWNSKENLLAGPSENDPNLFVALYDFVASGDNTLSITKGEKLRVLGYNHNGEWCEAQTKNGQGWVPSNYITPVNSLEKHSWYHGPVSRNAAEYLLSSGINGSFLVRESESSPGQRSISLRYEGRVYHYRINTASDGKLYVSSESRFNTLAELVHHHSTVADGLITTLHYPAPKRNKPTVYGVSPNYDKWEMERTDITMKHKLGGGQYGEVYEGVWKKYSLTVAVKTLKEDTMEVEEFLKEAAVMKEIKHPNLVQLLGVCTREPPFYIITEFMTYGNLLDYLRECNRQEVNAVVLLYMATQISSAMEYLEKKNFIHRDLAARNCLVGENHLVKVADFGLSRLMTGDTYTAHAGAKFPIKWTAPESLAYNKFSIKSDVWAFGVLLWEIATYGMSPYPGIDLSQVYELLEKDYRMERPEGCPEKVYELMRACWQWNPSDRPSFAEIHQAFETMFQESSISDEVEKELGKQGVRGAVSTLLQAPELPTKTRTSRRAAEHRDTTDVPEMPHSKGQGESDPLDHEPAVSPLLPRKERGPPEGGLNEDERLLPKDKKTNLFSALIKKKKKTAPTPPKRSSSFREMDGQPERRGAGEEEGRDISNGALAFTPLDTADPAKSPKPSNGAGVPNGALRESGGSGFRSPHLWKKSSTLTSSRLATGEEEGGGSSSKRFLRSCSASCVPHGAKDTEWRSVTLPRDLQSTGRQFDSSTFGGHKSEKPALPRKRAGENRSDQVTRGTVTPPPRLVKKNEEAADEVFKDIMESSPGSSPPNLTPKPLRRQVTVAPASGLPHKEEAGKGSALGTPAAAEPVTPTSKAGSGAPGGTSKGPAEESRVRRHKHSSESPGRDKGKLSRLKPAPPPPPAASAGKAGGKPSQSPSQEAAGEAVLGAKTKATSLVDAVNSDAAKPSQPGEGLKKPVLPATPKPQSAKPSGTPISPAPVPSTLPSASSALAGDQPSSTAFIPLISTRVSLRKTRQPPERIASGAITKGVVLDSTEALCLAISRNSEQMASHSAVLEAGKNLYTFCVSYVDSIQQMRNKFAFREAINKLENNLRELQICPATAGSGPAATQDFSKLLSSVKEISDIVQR
# ROCK2 = molecular target: T6, ROCK2 (Homo sapiens, UniProt O75116); experiment: HotSpot kinase assay; assay type: biochemical; settings: read-out: % Enzyme Activity (relative to DMSO controls)
# T6 construct: purchased Reaction Biology Corporation
# TBK1 = molecular target: T7, TBK1 (Homo sapiens, UniProt Q9UHD2); experiment: HotSpot kinase assay; assay type: biochemical; settings: read-out: % Enzyme Activity (relative to DMSO controls)
# T7 construct: purchased Reaction Biology Corporation
# CDK6/cyclin D1 = molecular target: T8, CDK6/cyclin D1 (Homo sapiens, UniProt Q00534); experiment: HotSpot kinase assay; assay type: biochemical; settings: read-out: % Enzyme Activity (relative to DMSO controls)
# T8 construct: purchased Reaction Biology Corporation
# PLK1 = molecular target: T9, PLK1 (Homo sapiens, UniProt P53350); experiment: HotSpot kinase assay; assay type: biochemical; settings: read-out: % Enzyme Activity (relative to DMSO controls)
# T9 construct: purchased Reaction Biology Corporation
# CDK17/cyclin Y (PCTK2) = molecular target: T10, CDK17/cyclin Y (PCTK2) (Homo sapiens, UniProt Q00537); experiment: HotSpot kinase assay; assay type: biochemical; settings: read-out: % Enzyme Activity (relative to DMSO controls)
# T10 construct: purchased Reaction Biology Corporation
# NEK11 = molecular target: T11, NEK11 (Homo sapiens, UniProt Q8NG66); experiment: HotSpot kinase assay; assay type: biochemical; settings: read-out: % Enzyme Activity (relative to DMSO controls)
# T11 construct: purchased Reaction Biology Corporation
# CDK4/cyclin D3 = molecular target: T12, CDK4/cyclin D3 (Homo sapiens, UniProt P11802); experiment: HotSpot kinase assay; assay type: biochemical; settings: read-out: % Enzyme Activity (relative to DMSO controls)
# T12 construct: purchased Reaction Biology Corporation
# BLK = molecular target: T13, BLK (Homo sapiens, UniProt P51451); experiment: HotSpot kinase assay; assay type: biochemical; settings: read-out: % Enzyme Activity (relative to DMSO controls)
# T13 construct: purchased Reaction Biology Corporation
# IGF1R = molecular target: T14, IGF1R (Homo sapiens, UniProt P08069); experiment: HotSpot kinase assay; assay type: biochemical; settings: read-out: % Enzyme Activity (relative to DMSO controls)
# T14 construct: purchased Reaction Biology Corporation
# LATS2 = molecular target: T15, LATS2 (Homo sapiens, UniProt Q9NRM7); experiment: HotSpot kinase assay; assay type: biochemical; settings: read-out: % Enzyme Activity (relative to DMSO controls)
# T15 construct: purchased Reaction Biology Corporation
# RSK1 = molecular target: T16, RSK1 (Homo sapiens, UniProt Q15418); experiment: HotSpot kinase assay; assay type: biochemical; settings: read-out: % Enzyme Activity (relative to DMSO controls)
# T16 construct: purchased Reaction Biology Corporation
# JAK3 = molecular target: T17, JAK3 (Homo sapiens, UniProt P52333); experiment: HotSpot kinase assay; assay type: biochemical; settings: read-out: % Enzyme Activity (relative to DMSO controls)
# T17 construct: purchased Reaction Biology Corporation
# RSK2 = molecular target: T18, RSK2 (Homo sapiens, UniProt P51812); experiment: HotSpot kinase assay; assay type: biochemical; settings: read-out: % Enzyme Activity (relative to DMSO controls)
# T18 construct: purchased Reaction Biology Corporation
# T18 sequence (P51812 whole entry): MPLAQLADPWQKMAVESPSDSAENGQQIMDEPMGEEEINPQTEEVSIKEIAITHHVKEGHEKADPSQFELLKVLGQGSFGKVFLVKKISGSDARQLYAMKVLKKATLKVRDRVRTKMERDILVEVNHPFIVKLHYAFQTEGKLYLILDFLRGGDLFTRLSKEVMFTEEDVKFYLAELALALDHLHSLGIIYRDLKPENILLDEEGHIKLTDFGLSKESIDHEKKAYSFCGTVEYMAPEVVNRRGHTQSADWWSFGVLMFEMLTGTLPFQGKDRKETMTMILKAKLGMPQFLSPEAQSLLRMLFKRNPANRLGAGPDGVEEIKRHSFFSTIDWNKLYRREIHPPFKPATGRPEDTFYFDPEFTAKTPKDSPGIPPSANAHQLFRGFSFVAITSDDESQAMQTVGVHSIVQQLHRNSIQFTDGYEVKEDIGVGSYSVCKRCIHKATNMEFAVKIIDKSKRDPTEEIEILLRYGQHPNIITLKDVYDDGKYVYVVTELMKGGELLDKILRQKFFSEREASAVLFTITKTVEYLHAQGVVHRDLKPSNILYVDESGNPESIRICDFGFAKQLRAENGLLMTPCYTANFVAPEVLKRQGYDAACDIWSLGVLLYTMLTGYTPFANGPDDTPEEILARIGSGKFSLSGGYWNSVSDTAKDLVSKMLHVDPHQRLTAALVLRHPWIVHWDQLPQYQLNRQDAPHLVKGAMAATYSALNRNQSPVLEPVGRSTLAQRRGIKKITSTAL
# CAMK2g = molecular target: T19, CAMK2g (Homo sapiens, UniProt Q13555); experiment: HotSpot kinase assay; assay type: biochemical; settings: read-out: % Enzyme Activity (relative to DMSO controls)
# T19 construct: purchased Reaction Biology Corporation
# KDR/VEGFR2 = molecular target: T20, KDR/VEGFR2 (Homo sapiens, UniProt P35968); experiment: HotSpot kinase assay; assay type: biochemical; settings: read-out: % Enzyme Activity (relative to DMSO controls)
# T20 construct: purchased Reaction Biology Corporation
# HaCat cells = experiment: apoptosis assay (activated caspases, SYTOX Green); assay type: cell-based, human; settings: 10µM
# Procedure: Cell proliferation and viability were determined using the Cell Titer 96 Aqueous One Solution and optical density was determined using a SpectraMax M5e Molecular Devices multidetection microplate reader. […] The cells were then fixed and stained for activated caspases (red) and SYTOX Green (for integrity of plasma membrane) by Image-iT^TM LIVE red Poly Caspase Detection kit. Nuclei were stained with Hoechst. Images were acquired by laser confocal microscope ZeissLive/DuoScan equipped with oil immersion objectives 63 × 1.1 and captured in an optical slice of 0.37 µm with appropriate filters. Alternatively, immunoblots were prepared and probed with antibodies to cleaved PARP-1 or cleaved caspase 8.
# AKT3 = molecular target: T21, AKT3 (Homo sapiens, UniProt Q9Y243); experiment: biochemical
# T21 construct: purchased Reaction Biology Corporation
# T21 sequence (Q9Y243 whole entry): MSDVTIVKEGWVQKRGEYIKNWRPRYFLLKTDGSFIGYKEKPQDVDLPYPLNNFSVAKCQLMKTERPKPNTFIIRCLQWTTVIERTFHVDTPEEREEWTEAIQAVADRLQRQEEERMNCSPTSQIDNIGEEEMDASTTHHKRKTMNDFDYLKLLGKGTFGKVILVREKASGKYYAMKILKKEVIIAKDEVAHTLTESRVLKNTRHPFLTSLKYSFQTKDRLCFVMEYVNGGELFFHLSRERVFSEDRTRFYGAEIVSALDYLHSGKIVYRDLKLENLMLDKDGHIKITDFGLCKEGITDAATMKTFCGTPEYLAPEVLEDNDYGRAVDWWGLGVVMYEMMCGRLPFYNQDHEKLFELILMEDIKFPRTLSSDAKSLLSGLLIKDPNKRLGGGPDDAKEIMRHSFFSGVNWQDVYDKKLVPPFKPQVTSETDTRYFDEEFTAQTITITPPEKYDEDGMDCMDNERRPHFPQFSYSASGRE
# MLCK/MYLK = molecular target: T22, MLCK/MYLK (Homo sapiens, UniProt Q15746); experiment: HotSpot kinase assay; assay type: biochemical; settings: read-out: % Enzyme Activity (relative to DMSO controls)
# T22 construct: purchased Reaction Biology Corporation
# EPHA1 = molecular target: T23, EPHA1 (Homo sapiens, UniProt P21709); experiment: HotSpot kinase assay; assay type: biochemical; settings: read-out: % Enzyme Activity (relative to DMSO controls)
# T23 construct: purchased Reaction Biology Corporation
# EGFR = molecular target: T24, EGFR (Homo sapiens, UniProt P00533); experiment: biochemical
# T24 construct: purchased Reaction Biology Corporation
# T24 sequence (P00533 25-1210): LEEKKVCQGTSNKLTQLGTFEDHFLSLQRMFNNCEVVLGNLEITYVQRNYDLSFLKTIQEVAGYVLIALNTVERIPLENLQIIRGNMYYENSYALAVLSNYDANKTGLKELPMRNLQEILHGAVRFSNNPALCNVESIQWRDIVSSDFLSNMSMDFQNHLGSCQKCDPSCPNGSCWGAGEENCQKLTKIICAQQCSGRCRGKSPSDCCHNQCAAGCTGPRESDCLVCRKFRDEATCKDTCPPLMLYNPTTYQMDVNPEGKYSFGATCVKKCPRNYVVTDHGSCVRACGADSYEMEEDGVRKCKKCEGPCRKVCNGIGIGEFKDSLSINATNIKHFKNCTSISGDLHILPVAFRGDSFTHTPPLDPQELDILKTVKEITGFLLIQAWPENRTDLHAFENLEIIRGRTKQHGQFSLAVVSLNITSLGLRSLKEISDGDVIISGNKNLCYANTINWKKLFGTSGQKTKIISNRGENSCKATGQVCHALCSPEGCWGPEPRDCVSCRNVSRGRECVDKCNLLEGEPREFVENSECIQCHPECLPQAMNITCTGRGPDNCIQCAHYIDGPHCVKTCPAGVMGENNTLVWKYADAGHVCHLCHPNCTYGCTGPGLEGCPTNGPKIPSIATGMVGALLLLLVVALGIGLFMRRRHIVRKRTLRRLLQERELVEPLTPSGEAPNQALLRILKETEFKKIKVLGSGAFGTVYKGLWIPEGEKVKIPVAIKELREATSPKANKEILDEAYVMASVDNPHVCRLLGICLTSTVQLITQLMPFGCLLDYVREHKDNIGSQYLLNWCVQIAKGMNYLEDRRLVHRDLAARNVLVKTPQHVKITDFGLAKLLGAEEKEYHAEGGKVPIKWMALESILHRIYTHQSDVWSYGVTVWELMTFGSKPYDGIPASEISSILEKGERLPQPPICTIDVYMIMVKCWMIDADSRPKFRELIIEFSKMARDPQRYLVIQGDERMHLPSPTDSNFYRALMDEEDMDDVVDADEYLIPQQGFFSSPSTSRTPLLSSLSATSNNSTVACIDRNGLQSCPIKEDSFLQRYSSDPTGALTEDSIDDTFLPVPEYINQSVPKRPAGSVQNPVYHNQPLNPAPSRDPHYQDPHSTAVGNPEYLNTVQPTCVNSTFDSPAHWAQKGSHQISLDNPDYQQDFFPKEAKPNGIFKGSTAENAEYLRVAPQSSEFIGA
# p70S6K/RPS6KB1 = molecular target: T25, p70S6K/RPS6KB1 (Homo sapiens, UniProt P23443); experiment: HotSpot kinase assay; assay type: biochemical; settings: read-out: % Enzyme Activity (relative to DMSO controls)
# T25 construct: purchased Reaction Biology Corporation
# ITK = molecular target: T26, ITK (Homo sapiens, UniProt Q08881); experiment: HotSpot kinase assay; assay type: biochemical; settings: read-out: % Enzyme Activity (relative to DMSO controls)
# T26 construct: purchased Reaction Biology Corporation
# EPHB4 = molecular target: T27, EPHB4 (Homo sapiens, UniProt P54760); experiment: HotSpot kinase assay; assay type: biochemical; settings: read-out: % Enzyme Activity (relative to DMSO controls)
# T27 construct: purchased Reaction Biology Corporation
# T27 sequence (P54760 16-987): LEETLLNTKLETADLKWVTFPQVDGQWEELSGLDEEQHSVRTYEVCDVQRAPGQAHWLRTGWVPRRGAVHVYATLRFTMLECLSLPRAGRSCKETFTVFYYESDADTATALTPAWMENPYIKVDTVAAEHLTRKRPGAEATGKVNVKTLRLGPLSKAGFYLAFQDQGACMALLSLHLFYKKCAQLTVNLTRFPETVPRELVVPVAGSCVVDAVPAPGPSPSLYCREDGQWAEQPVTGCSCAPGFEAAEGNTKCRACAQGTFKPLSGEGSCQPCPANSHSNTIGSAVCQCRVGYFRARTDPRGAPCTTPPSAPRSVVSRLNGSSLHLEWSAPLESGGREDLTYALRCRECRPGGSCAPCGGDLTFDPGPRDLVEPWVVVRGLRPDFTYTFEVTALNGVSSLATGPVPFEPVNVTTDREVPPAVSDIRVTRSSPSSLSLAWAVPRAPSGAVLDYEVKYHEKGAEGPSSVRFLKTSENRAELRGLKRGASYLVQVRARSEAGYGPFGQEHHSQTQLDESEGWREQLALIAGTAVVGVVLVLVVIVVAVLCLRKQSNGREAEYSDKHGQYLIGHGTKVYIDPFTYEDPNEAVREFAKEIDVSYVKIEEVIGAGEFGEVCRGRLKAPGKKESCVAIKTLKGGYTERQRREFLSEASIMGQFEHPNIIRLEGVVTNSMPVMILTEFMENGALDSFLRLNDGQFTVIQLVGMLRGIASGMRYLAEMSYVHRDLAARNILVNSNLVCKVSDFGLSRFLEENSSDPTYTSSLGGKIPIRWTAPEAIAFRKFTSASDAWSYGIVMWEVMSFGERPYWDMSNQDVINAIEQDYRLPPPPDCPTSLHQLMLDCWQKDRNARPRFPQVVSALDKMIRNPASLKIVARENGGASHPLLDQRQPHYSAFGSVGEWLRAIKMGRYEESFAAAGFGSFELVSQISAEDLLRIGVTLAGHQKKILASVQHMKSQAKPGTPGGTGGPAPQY
# CK2a2 = molecular target: T28, CK2a2 (Homo sapiens, UniProt P19784); experiment: HotSpot kinase assay; assay type: biochemical; settings: read-out: % Enzyme Activity (relative to DMSO controls)
# T28 construct: purchased Reaction Biology Corporation
# T28 sequence (P19784 whole entry): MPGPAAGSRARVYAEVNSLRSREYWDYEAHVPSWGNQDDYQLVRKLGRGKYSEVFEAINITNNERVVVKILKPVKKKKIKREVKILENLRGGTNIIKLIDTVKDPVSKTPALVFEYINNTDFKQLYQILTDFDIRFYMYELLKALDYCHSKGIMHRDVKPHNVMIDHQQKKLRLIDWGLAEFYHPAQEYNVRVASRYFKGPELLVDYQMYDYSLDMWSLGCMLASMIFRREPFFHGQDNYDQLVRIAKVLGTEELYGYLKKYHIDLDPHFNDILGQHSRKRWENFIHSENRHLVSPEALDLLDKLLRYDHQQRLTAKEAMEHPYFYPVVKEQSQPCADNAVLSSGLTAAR
# [1] = Supplementary Table 1, read-out: IC50 (Molar concentration)
# [2] = read-out: % Enzyme Activity (relative to DMSO controls), 10µM
smiles,measurement,setting,value
CO[C@@H]1[C@H](N(C)C(=O)CCC(=O)NCc2cn(CCCS(=O)(=O)O)nn2)C[C@H]2O[C@]1(C)n1c3ccccc3c3c4c(c5c6ccccc6n2c5c31)C(=O)NC4 [CIMSS],remaining activity at 10 µM,CK1g3,97.2%
same,remaining activity at 10 µM,PYK2,2.4%
same,remaining activity at 10 µM,STK38L/NDR2,22.7%
same,remaining activity at 10 µM,ABL2/ARG,4.07%
same,IC50,ABL1; [1],143 nM
same,remaining activity at 10 µM,ABL1; [2],5.18%
same,remaining activity at 10 µM,ROCK2,12.7%
same,remaining activity at 10 µM,TBK1,2.01%
same,remaining activity at 10 µM,CDK6/cyclin D1,63%
same,remaining activity at 10 µM,PLK1,17.1%
same,remaining activity at 10 µM,CDK17/cyclin Y (PCTK2),54.2%
same,remaining activity at 10 µM,NEK11,52%
same,remaining activity at 10 µM,CDK4/cyclin D3,85.6%
same,remaining activity at 10 µM,BLK,0.34%
same,remaining activity at 10 µM,IGF1R,6.72%
same,remaining activity at 10 µM,LATS2,6.54%
same,remaining activity at 10 µM,RSK1,3.27%
same,remaining activity at 10 µM,JAK3,0.97%
same,remaining activity at 10 µM,RSK2,1.69%
same,remaining activity at 10 µM,CAMK2g,1.25%
same,remaining activity at 10 µM,KDR/VEGFR2,7.22%
same,induction of apoptosis,HaCat cells,did not induce apoptosis
same,IC50,AKT3; [1],157 nM
same,remaining activity at 10 µM,AKT3; [2],11.4%
same,inhibition at 10 µM,AKT3; read-out: inhibition of Akt3,> 75%
same,remaining activity at 10 µM,MLCK/MYLK,15.5%
same,remaining activity at 10 µM,EPHA1,31.5%
same,IC50,EGFR; [1],1610 nM
same,remaining activity at 10 µM,EGFR; [2],17.4%
same,remaining activity at 10 µM,p70S6K/RPS6KB1,5.46%
same,remaining activity at 10 µM,ITK,4.12%
same,remaining activity at 10 µM,EPHB4,19.4%
same,remaining activity at 10 µM,CK2a2,44.6%
